Experimental data taken from patent publication US8883841B2, “Oncogenic ras-specific cytotoxic compound and methods of use thereof” (The Board of Regents of the University of Texas System, priority 2005, dated 2014).

Experiments:
H226B cells = assay: Cell viability, H226B lung cancer cells; assay type: cell-based, human; details: H226B, Lung
A549 cells = assay: Cell viability, A549 lung cancer cells; assay type: cell-based, human; details: A549, Lung
A549CK8 = assay: Cell viability, A549CK8 lung cancer cells; assay type: cell-based, human; details: A549CK8, Lung
Hct116 = assay: Cell viability, Hct116 colon cancer cells; assay type: cell-based, human; details: Hct116, Colon
CT116P53 = assay: Cell viability, CT116P53 colon cancer cells; assay type: cell-based, human; details: CT116P53, Colon
HKE3 = assay: Cell viability, HKE3 colon cancer cells; assay type: cell-based, human; details: HKE3, Colon
H322 cells = assay: Cell viability, H322 lung cancer cells; assay type: cell-based, human; details: H322, Lung
H1299 cells = assay: Cell viability, H1299 lung cancer cells; assay type: cell-based, human; details: h1299, Lung
AsPC-1 = assay: Cell viability, AsPC-1 pancreatic cancer cells; assay type: cell-based, human; details: ASPC1, Pancrease
DLD1 = assay: Cell viability, DLD1 colon cancer cells; assay type: cell-based, human; details: DLD1, Colon
Heb46 = assay: Cell viability, Heb46 kidney cells; assay type: cell-based
Heb44 = assay: Cell viability, Heb44 kidney cells; assay type: cell-based
Capanc-1 = assay: Cell viability, Capanc-1 pancreatic cancer cells; assay type: cell-based, human; details: capanc1, Pancrease
Sw620 = assay: Cell viability, Sw620 colon cancer cells; assay type: cell-based, human; details: Sw620, Colon
miapac = assay: Cell viability, miapac pancreatic cancer cells; assay type: cell-based, human; details: miapac, Pancrease
H2122 = assay: Cell viability, H2122 lung cancer cells; assay type: cell-based, human; details: H2122, Lung
H2009 = assay: Cell viability, H2009 lung cancer cells; assay type: cell-based, human; details: H2009, Lung
H23 = assay: Cell viability, H23 lung cancer cells; assay type: cell-based, human; details: H23, Lung
H1933 = assay: Cell viability, H1933 lung cancer cells; assay type: cell-based, human; details: H1933, Lung
H1395 = assay: Cell viability, H1395 lung cancer cells; assay type: cell-based, human; details: H1395, Lung
H2087 = assay: Cell viability, H2087 lung cancer cells; assay type: cell-based, human; details: H2087, Lung
Ovcar3 = assay: Cell viability, Ovcar3 ovary cancer cells; assay type: cell-based
Ovcar443 = assay: Cell viability, Ovcar443 ovary cancer cells; assay type: cell-based
Hey = assay: Cell viability, Hey ovary cancer cells; assay type: cell-based
Ovca429 = assay: Cell viability, Ovca429 ovary cancer cells; assay type: cell-based
SKOV3 = assay: Cell viability, SKOV3 ovary cancer cells; assay type: cell-based
T29Kt1 cells = details: Table 1; value is the negative log10 of mol/L
H460 cells = details: H460, Lung
PKCiota = assay: Immunohistochemical staining, subcellular localization of PKCiota; assay type: cell-based, human; details: 12 h; comparators at doses giving similar cell killing
Description: Effects on subcellular localization of PKCiota. […] To further investigate molecular mechanisms of Oncrasin action the inventors studied the subcellular localization of several molecules involved in Ras-signaling pathway because the functions of Ras and other proteins are directly related to their subcellular localizations. For this purpose, T29Kt1 or H460 cells were seeded on cover glass slides and treated with DMSO or Oncrasin-1 for 12 h. Cells were then fixed with paraformaldehyde, permeabilized with Triton X-100 and stained with various antibodies for immunohistochemical examination. […] Nevertheless, substantial subcellular localization change was detected for PKCiota after Oncrasin-1 treatment (FIG. 6). In both H460 and T29Kt1 cells, both PKCiota and PKCzeta were diffusely distributed in cells with high concentration on cell membrane in nucleus, consisting with previous reports that aPKC contains both nuclear localization signal (NLS) and nuclear export signal (NES), and can shuttle between cytoplasm and nucleus, which was regulated by intramolecular conformational changes, phosphorylation or by treatment with growth factors (Perander et al., 2001; White et al., 2002; Neri et al., 1999). […] Such aggregation of PKCiota was not observed in Oncrasin-resistant T29 and H1299 cells. The inventors then tested whether PKCiota aggregation in the nucleus can be induced by other chemotherapeutic agents such as 5-fluorouracil (5-FU) and paclitaxol.

OCc1cn(Cc2ccc(Br)cc2)c2ccccc12 [Oncrasin K73, 1H-Indole-3-methanol, 1-{(4-bromophenyl)methyl]-(9CI)]
IC50 (−LogM) (H226B cells; first H226B line): 7 −LogM | IC50 (−LogM) (H226B cells; second H226B line): 5.8 −LogM | IC50 (−LogM) (A549 cells): >4.5 −LogM | IC50 (−LogM) (A549CK8): 5.5 −LogM | IC50 (−LogM) (Hct116): 5.5 −LogM | IC50 (−LogM) (CT116P53): >4.5 −LogM | IC50 (−LogM) (HKE3; first HKE3 line): 6.5 −LogM | IC50 (−LogM) (HKE3; second HKE3 line): 6.1 −LogM | IC50 (−LogM) (H322 cells): >4.5 −LogM | IC50 (−LogM) (H1299 cells): >4.5 −LogM | IC50 (−LogM) (AsPC-1): 5.5 −LogM | IC50 (−LogM) (DLD1): >4.5 −LogM | IC50 (−LogM) (Heb46): 6.1 −LogM | IC50 (−LogM) (Heb44): 7.4 −LogM | IC50 (−LogM) (Capanc-1): 5.5 −LogM | IC50 (−LogM) (Sw620): >4.5 −LogM | IC50 (−LogM) (miapac): >4.5 −LogM | IC50 (−LogM) (H2122): 5.6 −LogM | IC50 (−LogM) (H2009): >4.5 −LogM | IC50 (−LogM) (H23): 4.5 −LogM | IC50 (−LogM) (H1933): 4.5 −LogM | IC50 (−LogM) (H1395): >4.5 −LogM | IC50 (−LogM) (H2087): 4.5 −LogM | IC50 (−LogM) (Ovcar3): 5.9 −LogM | IC50 (−LogM) (Ovcar443): 4.8 −LogM | IC50 (−LogM) (Hey): 4.5 −LogM | IC50 (−LogM) (Ovca429): 5.5 −LogM | IC50 (−LogM) (SKOV3): 5.5 −LogM | IC50 in T29k cells (T29Kt1 cells): 6.4 | IC50 (−LogM) (H460 cells): 8.5 −LogM

O=c1[nH]cc(F)c(=O)[nH]1 [Oncrasin 5-FLY, 5-fluorouracil, reference compound]
PKCiota aggregation in the nucleus, T29Kt1 cells (PKCiota): did not induce PKCiota aggregation

O=c1cc(N2CCOCC2)oc2c(-c3ccccc3)cccc12 [LY294003, reference compound]
PKCiota aggregation in the nucleus, T29Kt1 cells (PKCiota): did not induce PKCiota aggregation
